For 2 compounds, EC50 and IC50 results are on record in paper PMC4406737, “Meroterpenoid Chrodrimanins Are Selective and Potent Blockers of Insect GABA-Gated Chloride Channels” (PLoS ONE, 2015).

Molecules are shown by their SMILES.

For test [1], the target named is T1, B. mori GABAR RDL (wild-type isoform, exon 3b and exon 6d) (Bombyx mori, UniProt U3TMA1).
T1 construct: full cDNA in pcDNA3.1, cRNA expressed in Xenopus laevis oocytes; RDL injected alone (homomer)
T1 sequence (U3TMA1 29-482): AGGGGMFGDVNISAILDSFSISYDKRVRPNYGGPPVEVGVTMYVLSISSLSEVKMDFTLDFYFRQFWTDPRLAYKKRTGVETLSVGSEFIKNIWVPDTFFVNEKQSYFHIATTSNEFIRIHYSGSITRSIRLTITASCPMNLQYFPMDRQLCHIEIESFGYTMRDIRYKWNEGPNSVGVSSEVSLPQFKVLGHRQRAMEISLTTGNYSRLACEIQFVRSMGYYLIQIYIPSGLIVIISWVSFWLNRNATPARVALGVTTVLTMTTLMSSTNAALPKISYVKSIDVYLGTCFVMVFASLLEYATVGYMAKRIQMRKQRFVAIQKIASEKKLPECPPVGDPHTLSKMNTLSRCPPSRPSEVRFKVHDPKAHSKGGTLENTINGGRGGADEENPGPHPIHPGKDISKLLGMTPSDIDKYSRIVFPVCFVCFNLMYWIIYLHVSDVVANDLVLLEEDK
Briefly: two-electrode voltage clamp, Xenopus oocytes, agonist concentration-response. Format: cell-based. A general note: Two-electrode voltage clamp is typically applied to oocytes expressing channels or transporters.

In test [2] the target is T1, B. mori GABAR RDL (wild-type isoform, exon 3b and exon 6d). Briefly: two-electrode voltage clamp, Xenopus oocytes, block of GABA peak current. The test is classed as cell-based.

Compound `NCCCC(=O)O` [GABA] registered an EC50 in test [1] of 41.1 µM.

`N#Cc1nn(-c2c(Cl)cc(C(F)(F)F)cc2Cl)c(N)c1[S+]([O-])C(F)(F)F` (centres unmarked) [fipronil] had an IC50 in test [2] of 0.0394 µM.

One may read the EC50 as the concentration giving half of the maximal effect. Higher therefore signals lower potency in that assay. Usually IC50 stands for the midpoint of a concentration-inhibition curve. A lower IC50 goes with greater potency.
